Experimental data: patent US12043599B2, “Herbicidal compounds” (SYNGENTA PARTICIPATIONS AG, priority 2018, dated 2024)

Columns and labels:
Format in all cases: in vivo
Details in all cases: 250 g/h, evaluated after 13 days
[1] = test system: Echinochloa crus-galli (ECHCG); test: Post-emergence herbicidal glasshouse test, percentage damage
Summary of the method: (§1)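 Damage assessed 13 days after treatment and expressed as a five-point score (5=80-100%; 4=60-79%; 3=40-59%; 2=20-39%; 1=0-19%). Compound applied at 250 g/h as an acetone/water/0.5% Tween 20 spray, pre-emergence (day 1 after sowing) or post-emergence (day 8). Plants kept at 24/16° C., 14 h light, 65% humidity.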

[2] = test system: Lolium perenne (LOLPE); test: as above
Summary of the method: as §1

[3] = test system: Avena fatua (AVEFA); test: as above
Summary of the method: as §1

[4] = test system: Alopecurus myosuroides (ALOMY); test: as above
Summary of the method: as §1

[5] = test system: Echinochloa crus-galli (ECHCG); test: Pre-emergence herbicidal glasshouse test, percentage damage
Summary of the method: as §1

[6] = test system: Lolium perenne (LOLPE); test: as above
Summary of the method: as §1

[7] = test system: Avena fatua (AVEFA); test: as above
Summary of the method: as §1

[8] = test system: Alopecurus myosuroides (ALOMY); test: as above
Summary of the method: as §1

[9] = test system: Setaria faberi (SETFA); test: as above
Summary of the method: as §1

[10] = test system: Setaria faberi (SETFA); test: Post-emergence herbicidal glasshouse test, percentage damage
Summary of the method: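 Percentage damage was scored 13 days after treatment on a five-point scale (1=0-19% to 5=80-100%). Treatments were post-emergence sprays on 8-day-old wheat, barley and SETFA plants in a glasshouse (24/16 °C day/night, 14 h light, 65% humidity), using acetone/water 50:50 with 0.5% Tween 20 at the stated rates. Wheat additionally received cloquintocet-mexyl safener at 50 g/ha.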

SMILES | ECHCG POST percentage damage (five point scale) [1] | LOLPE POST percentage damage (five point scale) [2] | AVEFA POST percentage damage (five point scale) [3] | ALOMY POST percentage damage (five point scale) [4] | ECHCG PRE percentage damage (five point scale) [5] | LOLPE PRE percentage damage (five point scale) [6] | AVEFA PRE percentage damage (five point scale) [7] | ALOMY PRE percentage damage (five point scale) [8] | SETFA PRE percentage damage (five point scale) [9] | SETFA POST percentage damage (five point scale) [10]
CC#Cc1cc(C)c(C2C(=O)CC3(CCN(C(=O)NC(=O)c4ccc(F)cn4)CC3)CC2=O)c(C)c1 [Compound A157] | 5 (5=80-100%) | 5 (5=80-100%) | 5 (5=80-100%) | 5 (5=80-100%) | 5 (5=80-100%) | 5 (5=80-100%) | 2 (2=20-39%) | 3 (3=40-59%) | 5 (5=80-100%) | 5 (5=80-100%)
CC#Cc1cc(C)c(C2C(=O)CC3(CCN(C(=O)NC(=O)c4ncc(C(F)(F)F)cc4Cl)CC3)CC2=O)c(C)c1 [Compound A158] | 5 (5=80-100%) | 5 (5=80-100%) | 5 (5=80-100%) | 3 (3=40-59%) | 5 (5=80-100%) | 3 (3=40-59%) | 2 (2=20-39%) | 2 (2=20-39%) | 5 (5=80-100%) | 5 (5=80-100%)
CC#Cc1cc(C)c(C2C(=O)CC3(CCN(C(=O)NC(=O)c4cccc(F)n4)CC3)CC2=O)c(C)c1 [Compound A159] | 5 (5=80-100%) | 5 (5=80-100%) | 5 (5=80-100%) | 5 (5=80-100%) | 5 (5=80-100%) | 5 (5=80-100%) | 5 (5=80-100%) | 5 (5=80-100%) | 5 (5=80-100%) | 5 (5=80-100%)
CC#Cc1cc(C)c(C2C(=O)CC3(CCN(C(=O)NC(=O)c4ccc(C#N)cn4)CC3)CC2=O)c(C)c1 [Compound A160] | 4 (4=60-79%) | 5 (5=80-100%) | 5 (5=80-100%) | 4 (4=60-79%) | 4 (4=60-79%) | 3 (3=40-59%) | 4 (4=60-79%) | 2 (2=20-39%) | 5 (5=80-100%) | 5 (5=80-100%)
CC#Cc1cc(C)c(C2C(=O)CC3(CCN(C(=O)NC(=O)c4ccc(Cl)cn4)CC3)CC2=O)c(C)c1 [Compound A162] | 5 (5=80-100%) | 5 (5=80-100%) | 5 (5=80-100%) | 5 (5=80-100%) | 5 (5=80-100%) | 5 (5=80-100%) | 5 (5=80-100%) | 5 (5=80-100%) | 5 (5=80-100%) | 5 (5=80-100%)
CC#Cc1cc(C)c(C2C(=O)CC3(CCN(C(=O)NC(=O)c4ncccc4F)CC3)CC2=O)c(C)c1 [Compound A163] | 5 (5=80-100%) | 5 (5=80-100%) | 5 (5=80-100%) | 5 (5=80-100%) | 5 (5=80-100%) | 4 (4=60-79%) | 5 (5=80-100%) | 0 | 5 (5=80-100%) | 5 (5=80-100%)
CC#Cc1cc(C)c(C2C(=O)CC3(CCN(C(=O)NC(=O)c4cc(F)ccn4)CC3)CC2=O)c(C)c1 [Compound A164] | 5 (5=80-100%) | 5 (5=80-100%) | 5 (5=80-100%) | 5 (5=80-100%) | 5 (5=80-100%) | 5 (5=80-100%) | 5 (5=80-100%) | 4 (4=60-79%) | 5 (5=80-100%) | 5 (5=80-100%)
CC#Cc1cc(C)c(C2C(=O)CC3(CCN(C(=O)N(C)C(=O)C(C)(C)C)CC3)CC2=O)c(C)c1 [Compound A165] | 5 (5=80-100%) | 5 (5=80-100%) | 5 (5=80-100%) | 5 (5=80-100%) | 5 (5=80-100%) | 4 (4=60-79%) | 4 (4=60-79%) | 4 (4=60-79%) | 5 (5=80-100%) | 5 (5=80-100%)
CC#Cc1cc(C)c(C2C(=O)CC3(CCN(C(=O)NC(=O)c4ccccc4)CC3)CC2=O)c(C)c1 [Compound A166] | 5 (5=80-100%) | 5 (5=80-100%) | 5 (5=80-100%) | 5 (5=80-100%) | 4 (4=60-79%) | 5 (5=80-100%) | 4 (4=60-79%) | 5 (5=80-100%) | 5 (5=80-100%) | 5 (5=80-100%)
